The values below come from patent publication US12421254B2, “KRAS modulators and uses thereof” (Quanta Therapeutics, Inc., priority 2023, dated 2025).

One may read the IC50 as the point on the concentration scale where inhibition reaches its midpoint.

Assay [1] deals with GST-tagged KRAS-G12V (2-169) (Homo sapiens, UniProt P01116, G12V). Briefly: Nucleotide exchange assay (NEA), SOS-mediated, HTRF, KRAS G12V. Format: biochemical. The settings on record: Table 4; IC50 extracted at 90 min; 80 nM SOS. In a few lines:
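GST-KRAS-G12V (2-169), 0.25 nM, pre-incubated 1 h at RT with compound, then SOS1cat (564-1049) 80 nM and GTP-DY-647P1 150 nM added in HEPES pH 7.3 buffer with MgCl2 and DTT. HTRF via anti-GST Tb cryptate read over 90 min; IC50 from 4-parameter fit at 90 min, blanked to no-SOS reactions.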
Background: TR-FRET usually uses a lanthanide donor and a delayed reading to cut background.

The target of assay [2] is GST-tagged KRAS-G12D (2-169) (Homo sapiens, UniProt P01116, G12D). Nature of the assay: Nucleotide exchange assay (NEA), SOS-mediated, HTRF, KRAS G12D. To be noted: Table 4; IC50 extracted at 30 min; 20 nM SOScat; read-out: NEA G12D IC50. Format: biochemical. In a few lines:
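Compound preincubated 1 h at RT with 0.25 nM GST-KRAS-G12D (2-169) and anti-GST Tb donor, then 20 nM SOS1cat (564-1049) and 150 nM GTP-DY-647P1 added; pH 7.3 HEPES buffer with MgCl2 and DTT. HTRF monitored at RT; % inhibition versus DMSO and no-SOS blank, 4-parameter IC50 taken at 30 min.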

In assay [3] the test system is phospho-ERK in GP2D (KRAS-G12D) cells. Nature of the assay: pERK In Cell Western (ICW) assay (Method B), GP2D. Format: cell-based. To be noted: GP2d, 3 h, Table 4. In a few lines: (§1)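 Cells were seeded at 5,000/well (AGS) or 10,000/well (GP2D, SW620), grown overnight, then treated 3 h at 37 °C with a ½-log 9-point compound dilution. Fixed cells were stained for phospho-ERK with DRAQ5 as DNA counterstain; pERK/DRAQ5 ratio as percent of blank control gave IC50 by 4-parameter fit.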

The subject of assay [4] is phospho-ERK in SW620 (KRAS-G12V) cells. Briefly: pERK In Cell Western (ICW) assay (Method B), SW620. The class given is cell-based. To be noted: Homo sapiens, SW-620, 3 h, Table 4. The method in brief:
as §1

GST-tagged KRAS-G12V (2-169), sequence (P01116 2-169 isoform P01116-2 G12V): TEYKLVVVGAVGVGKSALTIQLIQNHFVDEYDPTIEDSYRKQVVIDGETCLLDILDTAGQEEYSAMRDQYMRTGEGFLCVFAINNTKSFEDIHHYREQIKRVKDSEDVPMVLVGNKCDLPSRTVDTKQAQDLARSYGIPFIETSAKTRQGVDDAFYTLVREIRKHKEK
GST-tagged KRAS-G12D (2-169), sequence (P01116 2-169 isoform P01116-2 G12D): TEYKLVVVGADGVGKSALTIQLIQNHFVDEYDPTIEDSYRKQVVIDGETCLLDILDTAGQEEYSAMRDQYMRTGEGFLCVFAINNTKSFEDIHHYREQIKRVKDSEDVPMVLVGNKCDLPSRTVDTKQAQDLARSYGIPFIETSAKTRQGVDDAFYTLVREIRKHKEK

As to `C[C@@]1(O)CCCN(c2nc(OC[C@@]34CCCN3C[C@H](F)C4)nc(N3CC4(C3)c3c(sc(N)c3C#N)CC3CC34)n2)C1` (stereo partly drawn) [Compound 51, 2-amino-1′-[4-[[(2R,8S)-2-fluoro-1,2,3,5,6,7-hexahydropyrrolizin-8-yl]methoxy]-6-[(3R)-3-hydroxy-3-methyl-1-piperidyl]-1,3,5-triazin-2-yl]spiro[4a,5,5a,6-tetrahydrocyclopropa[f]benzothiophene-4,3′-azetidine]-3-carbonitrile], the half-maximal inhibitory concentration (IC50) in assay [1] is 0.01 to 0.1 µM; in assay [2], 0.01 to 0.1 µM; in assay [3], 0.1 to 1 µM; in assay [4] it was 1 to 20 µM.

Consider `CC1(NC#N)CCCN(c2nc(OC[C@@]34CCCN3C[C@H](F)C4)nc(N3CC4(CCc5sc(N)c(C#N)c54)C3)n2)C1` (stereo partly drawn) [Compound 52, [1-[4-(2-amino-3-cyano-spiro[5,6-dihydrocyclopenta[b]thiophene-4,3′-azetidine]-1′-yl)-6-[[(2R,8S)-2-fluoro-1,2,3,5,6,7-hexahydropyrrolizin-8-yl]methoxy]-1,3,5-triazin-2-yl]-3-methyl-3-piperidyl]cyanamide], for which the IC50 in assay [1] lay within 0.01 to 0.1 µM; in assay [2] it was 0.01 to 0.1 µM; in assay [3], 0.1 to 1 µM; in assay [4], 1 to 20 µM.

In the case of `C=C1CN2CCCC2(COc2nc(N3CC4(CCc5sc(N)c(C#N)c54)C3)nc(N3CCC[C@@](C)(O)C3)n2)C1` (stereo partly drawn) [Compound 55, 2-amino-1′-[4-[(3R)-3-hydroxy-3-methyl-1-piperidyl]-6-[(6-methylene-2,3,5,7-tetrahydro-1H-pyrrolizin-8-yl)methoxy]-1,3,5-triazin-2-yl]spiro[5,6-dihydrocyclopenta[b]thiophene-4,3′-azetidine]-3-carbonitrile], the IC50 in assay [1] was less than 0.01 µM; in assay [2], less than 0.01 µM; in assay [3], 0.01 to 0.1 µM; in assay [4], 0.1 to 1 µM.

In the case of `N#Cc1c(N)sc2c1C1(CC2)CN(c2nc(OCC3(CN4CCOCC4)CC3)nc(N3CCCC(C#N)C3)n2)C1` (centres unmarked) [Compound 56, 2-amino-1′-[4-(3-cyano-1-piperidyl)-6-[[1-(morpholinomethyl)cyclopropyl]methoxy]-1,3,5-triazin-2-yl]spiro[5,6-dihydrocyclopenta[b]thiophene-4,3′-azetidine]-3-carbonitrile], the IC50 is 0.01 to 0.1 µM in assay [1], 0.1 to 1 µM in assay [2], 0.1 to 1 µM in assay [3] and 1 to 20 µM in assay [4].

Turning to `CC1(C#N)CCCN(c2nc(OCC3(CN4CCOCC4)CC3)nc(N3CC4(CCc5sc(N)c(C#N)c54)C3)n2)C1` (centres unmarked) [Compound 57, 2-amino-1′-[4-(3-cyano-3-methyl-1-piperidyl)-6-[[1-(morpholinomethyl)cyclopropyl]methoxy]-1,3,5-triazin-2-yl]spiro[5,6-dihydrocyclopenta[b]thiophene-4,3′-azetidine]-3-carbonitrile], the IC50 in assay [1] was in the range of 0.01 to 0.1 µM; in assay [2], 0.1 to 1 µM; in assay [3], 1 to 20 µM; in assay [4], 1 to 20 µM.

In the case of `C[C@]1(CO)C[C@@H](O)CN1c1nc(OC[C@@]23CCCN2C[C@H](F)C3)nc(N2CC3(CCc4sc(N)c(C#N)c43)C2)n1` [Compound 58, 2-amino-1′-[4-[[(2R,8S)-2-fluoro-1,2,3,5,6,7-hexahydropyrrolizin-8-yl]methoxy]-6-[(2R,4R)-4-hydroxy-2-(hydroxymethyl)-2-methyl-pyrrolidin-1-yl]-1,3,5-triazin-2-yl]spiro[5,6-dihydrocyclopenta[b]thiophene-4,3′-azetidine]-3-carbonitrile], the IC50 in assay [1] was 0.01 to 0.1 µM; in assay [2], 0.01 to 0.1 µM; in assay [3], 1 to 20 µM; in assay [4], 1 to 20 µM.

In the case of `C[C@@]1(CO)C[C@@H](O)CN1c1nc(OC[C@@]23CCCN2C[C@H](F)C3)nc(N2CC3(CCc4sc(N)c(C#N)c43)C2)n1` [Compound 59, 2-amino-1′-[4-[[(2R,8S)-2-fluoro-1,2,3,5,6,7-hexahydropyrrolizin-8-yl]methoxy]-6-[(2S,4R)-4-hydroxy-2-(hydroxymethyl)-2-methyl-pyrrolidin-1-yl]-1,3,5-triazin-2-yl]spiro[5,6-dihydrocyclopenta[b]thiophene-4,3′-azetidine]-3-carbonitrile], the half-inhibitory concentration (IC50) was 0.01 to 0.1 µM in assay [1], 0.1 to 1 µM in assay [2], no less than 20 µM in assay [3] and no less than 20 µM in assay [4].

For the molecule `C[C@@]1(O)CCCN(c2nc(OCC3(CN4CCOCC4)CC3)nc(N3CC4(C3)c3c(sc(N)c3C#N)CC4F)n2)C1` (stereo partly drawn) [Compound 61, 2-amino-5-fluoro-1′-[4-[(3R)-3-hydroxy-3-methyl-1-piperidyl]-6-[[1-(morpholinomethyl)cyclopropyl]methoxy]-1,3,5-triazin-2-yl]spiro[5,6-dihydrocyclopenta[b]thiophene-4,3′-azetidine]-3-carbonitrile], the IC50 in assay [1] is 0.01 to 0.1 µM; in assay [2], less than 0.01 µM; in assay [3], 0.01 to 0.1 µM; in assay [4] it was 0.1 to 1 µM.

Take `N#CCC1C=C(F)CN(c2nc(OCC3(CN4CCOCC4)CC3)nc(N3CC4(CCc5sc(N)c(C#N)c54)C3)n2)C1` (centres unmarked) [Compound 65, 2-amino-1′-[4-[3-(cyanomethyl)-5-fluoro-3,6-dihydro-2H-pyridin-1-yl]-6-[[1-(morpholinomethyl)cyclopropyl]methoxy]-1,3,5-triazin-2-yl]spiro[5,6-dihydrocyclopenta[b]thiophene-4,3′-azetidine]-3-carbonitrile]: the IC50 lay in the range of 0.01 to 0.1 µM in assay [1], 0.1 to 1 µM in assay [2], 1 to 20 µM in assay [3] and 1 to 20 µM in assay [4].

Turning to `C[C@@]1(O)C[C@H](O)CN(c2nc(OC[C@@]34CCCN3C[C@H](F)C4)nc(N3CC4(CCc5sc(N)c(C#N)c54)C3)n2)C1` [Compound 67, 2-amino-1′-[4-[(3R,5S)-3,5-dihydroxy-3-methyl-1-piperidyl]-6-[[(2R,8S)-2-fluoro-1,2,3,5,6,7-hexahydropyrrolizin-8-yl]methoxy]-1,3,5-triazin-2-yl]spiro[5,6-dihydrocyclopenta[b]thiophene-4,3′-azetidine]-3-carbonitrile], the IC50 in assay [1] is 0.01 to 0.1 µM; in assay [2], 0.01 to 0.1 µM; in assay [3], 0.1 to 1 µM; in assay [4], no less than 20 µM.

Consider `C[C@@]1(O)CCCN(c2nc(OCC3(CN4CCOCC4)CC3)nc(N3CC4(C3)c3c(sc(N)c3C#N)C[C@@H]4F)n2)C1` [Compound 68, (5S)-2-amino-5-fluoro-1′-[4-[(3R)-3-hydroxy-3-methyl-1-piperidyl]-6-[[1-(morpholinomethyl)cyclopropyl]methoxy]-1,3,5-triazin-2-yl]spiro[5,6-dihydrocyclopenta[b]thiophene-4,3′-azetidine]-3-carbonitrile], for which the IC50 in assay [1] is 0.01 to 0.1 µM; in assay [2] it was less than 0.01 µM; in assay [3], 0.1 to 1 µM; in assay [4] it was 0.1 to 1 µM.

With `N#Cc1c(N)sc2c1C1(CC2)CN(c2nc(OC[C@@]34CCCN3C[C@H](F)C4)nc(N3CCCOC[C@H]3CO)n2)C1` [Compound 69, 2-amino-1′-[4-[[(2R,8S)-2-fluoro-1,2,3,5,6,7-hexahydropyrrolizin-8-yl]methoxy]-6-[(3R)-3-(hydroxymethyl)-1,4-oxazepan-4-yl]-1,3,5-triazin-2-yl]spiro[5,6-dihydrocyclopenta[b]thiophene-4,3′-azetidine]-3-carbonitrile], the IC50 in assay [1] lay within 0.01 to 0.1 µM; in assay [2] it was 0.01 to 0.1 µM; in assay [3], 1 to 20 µM; in assay [4] it was 1 to 20 µM.

In the case of `C[C@@]1(O)CCCN(c2nc(OCC3(CN4CCOCC4)CC3)nc(N3CC4(C3)c3c(sc(N)c3C#N)C[C@H]4F)n2)C1` [Compound 70, (5R)-2-amino-5-fluoro-1′-[4-[(3R)-3-hydroxy-3-methyl-1-piperidyl]-6-[[1-(morpholinomethyl)cyclopropyl]methoxy]-1,3,5-triazin-2-yl]spiro[5,6-dihydrocyclopenta[b]thiophene-4,3′-azetidine]-3-carbonitrile], the 50% inhibitory concentration (IC50) in assay [1] was less than 0.01 µM; in assay [2], less than 0.01 µM; in assay [3] it was 0.1 to 1 µM; in assay [4], 0.1 to 1 µM.

Take `C[C@@]1(O)CCCN(c2nc(OC[C@@]34CCCN3C[C@H](F)C4)nc(N3CC4(C3)c3c(sc(N)c3C#N)CC4F)n2)C1` (stereo partly drawn) [Compound 71, 2-amino-5-fluoro-1′-[4-[[(2R,8S)-2-fluoro-1,2,3,5,6,7-hexahydropyrrolizin-8-yl]methoxy]-6-[(3R)-3-hydroxy-3-methyl-1-piperidyl]-1,3,5-triazin-2-yl]spiro[5,6-dihydrocyclopenta[b]thiophene-4,3′-azetidine]-3-carbonitrile]: the 50% inhibitory concentration (IC50) was 0.01 to 0.1 µM in assay [1], less than 0.01 µM in assay [2], 0.1 to 1 µM in assay [3] and 0.1 to 1 µM in assay [4].
